# Assay results reported in patent US4221730A, “3-[[(4-Aminophenyl)sulfonyl]amino]-N-[diaminophosphinyl]-benzamide” (Morton-Norwich Products, Inc., priority 1979, dated 1980).
# pIC50: −log10 of the molar value.
# What was measured:
# Format in all cases: cell-based
# [1] = target: T1, urease of intact Proteus mirabilis cells (Proteus mirabilis, UniProt P17086); assay: anti-urease potency using intact Proteus mirabilis cells as the source of urease; conditions: 40 minutes preincubation, pH 8.0, ammonia formed in five minutes after addition of urea; read-out: concentration evincing a 50% inhibition of the urease of intact Proteus mirabilis cells
# T1 construct: using intact Proteus mirabilis cells as the source of urease; endogenous in cells
# T1 sequence (P17086 whole entry): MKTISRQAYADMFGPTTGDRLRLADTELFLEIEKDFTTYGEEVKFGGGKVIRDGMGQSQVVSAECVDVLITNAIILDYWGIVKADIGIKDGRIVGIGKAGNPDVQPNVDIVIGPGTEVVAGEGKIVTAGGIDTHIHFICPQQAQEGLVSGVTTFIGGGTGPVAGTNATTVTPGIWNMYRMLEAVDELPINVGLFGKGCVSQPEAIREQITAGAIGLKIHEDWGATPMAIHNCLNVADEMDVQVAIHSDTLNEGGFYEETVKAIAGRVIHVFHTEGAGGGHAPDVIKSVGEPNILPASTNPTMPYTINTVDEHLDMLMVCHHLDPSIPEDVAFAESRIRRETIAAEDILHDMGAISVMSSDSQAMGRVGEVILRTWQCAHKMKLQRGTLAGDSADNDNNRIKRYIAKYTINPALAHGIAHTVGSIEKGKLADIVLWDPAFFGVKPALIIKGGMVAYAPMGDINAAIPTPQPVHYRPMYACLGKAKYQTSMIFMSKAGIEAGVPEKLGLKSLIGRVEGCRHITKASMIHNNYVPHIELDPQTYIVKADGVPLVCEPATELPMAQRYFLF
# Method: The anti-urease potency of the compound of this invention was determined using intact Proteus mirabilis cells as the source of urease. Compounds were preincubated with Proteus mirabilis cells suspended in a saline solution (0.1 molar) buffered with 0.1 molar tris(hydroxymethyl)aminomethane (pH 8.0). After 40 minutes preincubation, the remaining urease activity was determined by collecting the ammonia formed in five minutes after the addition of the substrate, urea. Ammonia assays were carried out according to the procedure of Seligson and Seligson [J. Lab. Clin. Med. 38, 324-330 (1951)]. Percent inhibition was calculated by comparing the amount of ammonia generated by cells preincubated with 3-[[(4-aminophenyl)sulfonyl]amino]-N-[diaminophosphinyl]-benzamide with the controls, in which preincubation was carried out in the absence of compound.
# Proteus mirabilis = assay: in vitro antibacterial activity; conditions: commonly employed in vitro techniques
# Text: (§1) It is particularly inimical to Proteus mirabilis and Escherichia coli at levels of 1.4 to 5.5×10^-5 molar in commonly employed in vitro techniques for determining antibacterial activity.
# Escherichia coli = assay: in vitro antibacterial activity; conditions: commonly employed in vitro techniques
# Text: as §1
compound,measurement,setting,value
Nc1ccc(S(=O)(=O)Nc2cccc(C(=O)NP(N)(N)=O)c2)cc1 [3-[[(4-aminophenyl)sulfonyl]amino]-N-[diaminophosphinyl]-benzamide],pIC50,[1],5.70
same,antibacterial activity level (inimical concentration),Proteus mirabilis,1.4 to 5.5×10^-5 molar
same,antibacterial activity level (inimical concentration),Escherichia coli,1.4 to 5.5×10^-5 molar
